# Where a name gives a salt, the structure may show the parent alone. Calls of active or inactive are those of the source. The calls are words filed in the database; no cut-off is given here.
# Experiments:
# [1] = molecular target: DNA topoisomerase 2-alpha (Homo sapiens) (UniProt P11388); experiment: Inhibition of human recombinant topoisomerase-2alpha assessed as inhibition of relaxation of supercoiled pBR322 plasmid DNA at 20 uM measured after 1 hr by ethidium bromide staining based agarose gel electrophoresis relative to control etoposide
# DNA topoisomerase 2-alpha (Homo sapiens), sequence (P11388 whole entry): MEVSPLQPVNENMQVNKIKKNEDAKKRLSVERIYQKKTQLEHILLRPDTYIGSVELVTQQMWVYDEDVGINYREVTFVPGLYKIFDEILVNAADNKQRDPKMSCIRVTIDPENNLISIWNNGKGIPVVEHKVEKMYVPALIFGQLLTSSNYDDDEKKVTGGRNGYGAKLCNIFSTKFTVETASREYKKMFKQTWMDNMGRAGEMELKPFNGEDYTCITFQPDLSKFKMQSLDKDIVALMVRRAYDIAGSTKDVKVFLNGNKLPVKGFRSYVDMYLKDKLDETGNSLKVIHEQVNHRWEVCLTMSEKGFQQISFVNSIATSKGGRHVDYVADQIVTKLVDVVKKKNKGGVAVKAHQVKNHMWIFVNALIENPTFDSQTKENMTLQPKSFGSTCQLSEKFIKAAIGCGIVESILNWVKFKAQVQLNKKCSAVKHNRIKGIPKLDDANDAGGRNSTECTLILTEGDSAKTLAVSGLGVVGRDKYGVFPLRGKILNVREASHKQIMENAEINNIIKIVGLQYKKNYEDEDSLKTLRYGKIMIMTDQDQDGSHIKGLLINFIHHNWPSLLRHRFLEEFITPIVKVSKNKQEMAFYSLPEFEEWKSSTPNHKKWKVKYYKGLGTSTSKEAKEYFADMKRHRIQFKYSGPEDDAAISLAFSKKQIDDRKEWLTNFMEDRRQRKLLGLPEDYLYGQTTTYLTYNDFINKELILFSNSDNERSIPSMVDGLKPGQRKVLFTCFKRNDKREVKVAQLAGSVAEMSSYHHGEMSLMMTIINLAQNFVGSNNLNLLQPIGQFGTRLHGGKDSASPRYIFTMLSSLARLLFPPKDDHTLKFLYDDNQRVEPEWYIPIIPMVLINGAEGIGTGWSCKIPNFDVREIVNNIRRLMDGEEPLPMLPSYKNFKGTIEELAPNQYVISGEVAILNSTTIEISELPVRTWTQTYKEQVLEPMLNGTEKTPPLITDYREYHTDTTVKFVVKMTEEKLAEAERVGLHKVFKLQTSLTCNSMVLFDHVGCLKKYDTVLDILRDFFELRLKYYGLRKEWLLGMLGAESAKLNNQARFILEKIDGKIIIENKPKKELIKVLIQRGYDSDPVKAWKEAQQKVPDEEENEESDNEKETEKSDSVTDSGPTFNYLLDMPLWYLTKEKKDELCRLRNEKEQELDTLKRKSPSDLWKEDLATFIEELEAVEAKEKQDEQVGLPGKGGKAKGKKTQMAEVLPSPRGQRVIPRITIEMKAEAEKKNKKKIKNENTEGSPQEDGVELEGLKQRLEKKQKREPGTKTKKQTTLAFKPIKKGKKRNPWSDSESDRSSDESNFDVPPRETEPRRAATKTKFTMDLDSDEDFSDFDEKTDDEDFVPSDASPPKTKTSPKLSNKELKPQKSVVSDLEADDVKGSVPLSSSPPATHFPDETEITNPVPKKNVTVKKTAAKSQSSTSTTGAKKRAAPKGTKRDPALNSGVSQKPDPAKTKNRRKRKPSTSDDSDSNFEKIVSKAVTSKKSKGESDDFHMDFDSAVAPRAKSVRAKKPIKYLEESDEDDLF
# [2] = test system: HCT-15; experiment: Antiproliferative activity against human HCT15 cells incubated for 72 hrs by CCK8 assay; format: functional, cell-based; details: HCT-15, 72 h
# [3] = molecular target: DNA topoisomerase 2-alpha (Homo sapiens) (UniProt P11388); experiment: Inhibition of human recombinant topoisomerase-2alpha assessed as inhibition of relaxation of supercoiled pBR322 plasmid DNA at 100 uM measured after 1 hr by ethidium bromide staining based agarose gel electrophoresis relative to control
# [4] = molecular target: DNA topoisomerase 2-alpha (Homo sapiens) (UniProt P11388); experiment: Inhibition of human recombinant topoisomerase-2alpha assessed as inhibition of relaxation of supercoiled pBR322 plasmid DNA at 20 uM measured after 1 hr by ethidium bromide staining based agarose gel electrophoresis relative to control
# [5] = molecular target: DNA topoisomerase 2-alpha (Homo sapiens) (UniProt P11388); experiment: Inhibition of human recombinant topoisomerase-2alpha assessed as inhibition of relaxation of supercoiled pBR322 plasmid DNA at 100 uM measured after 1 hr by ethidium bromide staining based agarose gel electrophoresis relative to control etoposide
# [6] = molecular target: T1, DNA topoisomerase 1 (Homo sapiens) (UniProt P11387); experiment: Inhibition of human recombinant topoisomerase-1 assessed as inhibition of relaxation of supercoiled pBR322 plasmid DNA at 100 uM measured after 1 hr by ethidium bromide staining based agarose gel electrophoresis relative to control
# T1 sequence (whole entry): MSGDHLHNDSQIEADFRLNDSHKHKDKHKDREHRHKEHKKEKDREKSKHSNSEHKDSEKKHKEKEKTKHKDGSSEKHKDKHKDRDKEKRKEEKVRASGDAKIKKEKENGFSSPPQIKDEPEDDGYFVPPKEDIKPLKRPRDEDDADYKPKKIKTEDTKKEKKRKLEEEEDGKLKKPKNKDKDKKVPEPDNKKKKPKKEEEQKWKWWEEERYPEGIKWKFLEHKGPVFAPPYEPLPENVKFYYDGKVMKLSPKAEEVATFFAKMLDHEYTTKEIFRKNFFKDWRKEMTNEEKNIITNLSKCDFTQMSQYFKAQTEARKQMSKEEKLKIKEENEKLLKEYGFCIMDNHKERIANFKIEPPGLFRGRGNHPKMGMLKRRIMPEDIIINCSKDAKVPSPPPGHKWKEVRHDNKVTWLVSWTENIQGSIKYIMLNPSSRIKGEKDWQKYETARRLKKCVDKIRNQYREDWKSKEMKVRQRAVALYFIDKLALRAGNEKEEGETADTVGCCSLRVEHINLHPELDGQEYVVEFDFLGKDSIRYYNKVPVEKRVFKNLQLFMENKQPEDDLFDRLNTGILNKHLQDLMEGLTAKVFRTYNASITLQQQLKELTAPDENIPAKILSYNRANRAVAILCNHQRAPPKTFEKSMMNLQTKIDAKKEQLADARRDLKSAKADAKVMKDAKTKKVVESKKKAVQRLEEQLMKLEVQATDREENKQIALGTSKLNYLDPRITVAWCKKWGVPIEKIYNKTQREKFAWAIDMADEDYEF
# [7] = test system: T47D; experiment: Antiproliferative activity against human T47D cells incubated for 72 hrs by CCK8 assay; format: functional, cell-based
# [8] = test system: HeLa; experiment: Antiproliferative activity against human HeLa cells incubated for 72 hrs by CCK8 assay; format: functional, cell-based
# [9] = molecular target: T1, DNA topoisomerase 1 (Homo sapiens); experiment: Inhibition of human recombinant topoisomerase-1 assessed as inhibition of relaxation of supercoiled pBR322 plasmid DNA at 20 uM measured after 1 hr by ethidium bromide staining based agarose gel electrophoresis relative to control
Ratio [1],IC50 [2] [µM],inhibition [3] [%],inhibition [4] [%],Ratio [5],inhibition [6] [%],IC50 [7] [µM],IC50 [8] [µM],inhibition [9] [%],inhibition [5],SMILES
1.33,1.6,83.1,52.6,1.08,18.2,0.71,4.11,,,Oc1ccc2c(c1)oc1c(-c3ccccc3)cc(-c3ccccc3O)nc12
,> 50,18.3,,,30.8,> 50,> 50,0,,Oc1ccc2c(c1)oc1c(-c3ccccc3)cc(-c3ccccc3)nc12
0.91,23.9,58.4,45.1,0.94,71.7,5.25,29.1,60.9,,Oc1ccc(-c2cc(-c3cccc(O)c3)nc3c2oc2cc(O)ccc23)cc1
0.96,> 50,46,38,0.6,30.1,1.03,> 50,0,,Oc1ccc2c(c1)oc1c(-c3ccccc3O)cc(-c3ccccc3O)nc12
0.82,> 50,46.3,32.5,0.6,15.9,2.79,> 50,,,Oc1cccc(-c2cc(-c3ccccc3)c3oc4cc(O)ccc4c3n2)c1
1.11,3.73,66.1,55.1,1.07,66.3,0.19,2.16,38.1,,Oc1ccc(-c2cc(-c3cccc(O)c3)c3oc4cc(O)ccc4c3n2)cc1
1.83,> 50,78.4,72.2,1.02,43.9,5.3,> 50,0,,Oc1ccc(-c2cc(-c3ccccc3)c3oc4cc(O)ccc4c3n2)cc1
0.31,2.5,63,12,0.82,33.9,0.64,3.63,0,,Oc1cccc(-c2cc(-c3ccccc3O)c3oc4cc(O)ccc4c3n2)c1
,0.51,,,,,,1.5,,,COc1cccc2c1C(=O)c1c(O)c3c(c(O)c1C2=O)C[C@@](O)(C(=O)CO)C[C@@H]3O[C@H]1C[C@H](N)[C@H](O)[C@H](C)O1 [DOXORUBICIN HYDROCHLORIDE]
1.42,9.34,100,70.8,1.62,39.9,1.97,3.62,0,,Oc1ccc(-c2cc(-c3ccccc3O)nc3c2oc2cc(O)ccc23)cc1
0.84,4.11,98,41.9,1.58,27.4,0.34,3.27,,,Oc1cccc(-c2cc(-c3ccccc3)nc3c2oc2cc(O)ccc23)c1
0.73,1.26,87.3,29,1.12,3.3,0.62,2.86,,,Oc1ccc(-c2cc(-c3ccccc3O)c3oc4cc(O)ccc4c3n2)cc1
1.53,6.96,99.1,76,1.6,25.6,1.26,3.39,,,Oc1cccc(-c2cc(-c3ccccc3O)nc3c2oc2cc(O)ccc23)c1
1.49,1.22,100,74.1,1.62,22.4,0.59,0.86,,,Oc1cccc(-c2cc(-c3cccc(O)c3)c3oc4cc(O)ccc4c3n2)c1
1.33,4.21,71,65.9,1.15,33.8,0.17,3.32,18.6,,Oc1ccc(-c2cc(-c3ccc(O)cc3)c3oc4cc(O)ccc4c3n2)cc1
0.48,5.74,52.5,19.1,0.69,14.2,0.74,6.93,,,Oc1ccc2c(c1)oc1c(-c3ccccc3O)cc(-c3ccccc3)nc12
,> 50,0.4,,,30.3,> 50,> 50,0,inactive,Oc1ccc(-c2cc(-c3ccccc3)nc3c2oc2cc(O)ccc23)cc1

# From ChEMBL document CHEMBL4184253, “Design, synthesis, and structure-activity relationships of new benzofuro[3,2-b]pyridin-7-ols as DNA topoisomerase II inhibitors” (Bioorg Med Chem Lett, 2018)
